Test results taken from patent US20080200412A1, “Astrocyte Elevated Gene-1 And Its Promoter In Treatments For Neurotoxicity And Malignancy” (priority 2005, published 2008).

How the values were obtained:
AEG-1 promoter [1] = assay: AEG-1 promoter luciferase reporter in primary human fetal astrocytes; format: cell-based; details: PHFA, 0.1 to 100 μM
Excerpt: (§1) Construction of plasmids: The full-length AEG-1 promoter DNA used in this analysis has a 3′ boundary 1 base-pair 5′ to the translation initiation site (ATG codon) of the AEG-1 gene (designated as nucleotide 1 in FIG. 7; SEQ ID NO:2) and extends 2759 bp upstream. The genomic DNA region corresponding to the AEG-1 promoter was isolated by PCR using the PCRx Enhancer System (Invitrogen, Carlsbad, Calif.) with forward primer: 5′-[…] -3′ (KpnI site underlined) (SEQ ID NO:4) and reverse primer: 5′-[…]-3′ (XhoI site underlined) 9SEQ ID NO:5). PCR conditions were as follows: Denaturation 95° C., 30 sec; annealing 55° C., 30 sec and extension 68° C., 3 min, repeated for 30 cycles. This region of genomic DNA was cloned into the luciferase reporter pGL-3 basic (Promega, Madison, Wis.) using restriction sites in KpnI and XhoI in the plasmid polylinker.
(§2) Other mediators of AEG-1 promoter activity. The HIV-Tat (Simm et al Virology 2002;294(1);1-12) and Nef (Lathi et al., Virology. 2003; 310(1):190-196) gene products were tested on the full length AEG-1 promoter at a plasmid expression vector concentration range of 50 to 800 ng/transfection point (FIG. 16). […] Thus, the AEG-1 promoter appears to be responsive to protein products produced by HIV infection of cells.

AEG-1 promoter [2] = assay: AEG-1 promoter luciferase reporter in C2 and C10 cell lines; format: cell-based, human
Excerpt: as §1
Cell treatment with inhibitors. The PI3 kinase inhibitor LY294002, MEK inhibitor PD 98059 and p38 MAP Kinase inhibitor SB 203580 were used to treat cells at the indicated concentration and to determine the effect of inhibition of the respective pathway on AEG-1 promoter activity using the AEG-1 luciferase reporter.
The colorectal cancer cell line HCT116 which is mutated in the k-RAS gene was also tested for AEG-1 promoter activity in addition to two related cell lines. […]

AEG-1 promoter [3] = assay: AEG-1 promoter luciferase reporter in CREF and CREF-ras fibroblasts; format: cell-based, rat
Excerpt: as §1
(§3) Transient transfection and luciferase assay. CREF, CREF-ras, FM516, FM516-ras, THV and THR cells were plated on 24-well plates one day prior to transfection. […] Luciferase activity was measured and normalized against β-galactosidase activity produced by a co-transfected vector as described (17). […]
(§4) Effect of inhibition of PI3 Kinase, MEK kinase and p38 MAP kinase on AEG-1 promoter activity. Signal transduction pathways impinging on or directly downstream of the RAS pathway were analyzed to determine their effect on AEG-1 promoter activity (FIGS. 13 A-E). […]

AEG-1 promoter [4] = assay: AEG-1 promoter luciferase reporter in THV/THR astrocytes; format: cell-based, human
Excerpt: as §1, §3, §4

EAAT2 promoter = details: PHFA; cited from earlier work
AEG-1 [5] = details: PHFA, by 7-days; cited from earlier work
AEG-1 promoter [6] = assay: AEG-1 promoter luciferase reporter co-transfected with HIV Tat or Nef expression constructs; format: cell-based, human; details: plasmid expression vector 50 to 800 ng/transfection point
Excerpt: as §1, §2

[7] = test system: glutamate transporter (EAAT2); details: astrocytes; cited from earlier work
U87-MG cells [8] = assay: Matrigel invasion assay (Transwell); format: cell-based, human; details: 72 h, vs control scrambled siRNA
Experimental: (§5) Matrigel invasion assay. Cell were cultured, transfected and harvested essentially as described above for soft-agar colony formation assays. Cells were mixed with Matrigel and plated on […] pore-size tissue culture inserts. After 72 h or a pre-optimized time depending on the cell line, Matrigel was removed and the inserts were stained with Geimsa stain to enumerate the number of cells that had passed through the tissue culture insert membrane.
(§6) Effect of inhibition of AEG-1 on invasiveness of malignant glioma cells. U87-MG and U251-MG cells were transiently transfected with siRNA for AEG-1 and with control scrambled siRNA using Lipofectamine. 24 hours after transfection cells were seeded in the upper compartment of a Transwell™ unit (Becton Dickinson) and then incubated for 72 h at 37° C. The lower compartment contained 0.5 ml of DMEM and 5% FBS. At the end of the invasion assay, the filters were removed, fixed, and stained.

U251-MG cells [9] = assay: Matrigel invasion assay (Transwell); format: cell-based, human; details: 72 h, vs control scrambled siRNA
Experimental: as §5, §6

AEG-1 [10] = assay: Western blot of AEG-1 protein after siRNA transfection; format: cell-based, human; details: U87-MG and U251-MG cells transiently transfected, 24 hours
Experimental: Western blotting and immunofluorescence microscopy. Whole cell lysates were prepared and Western blotting was performed as described (17). Antibodies used in specific experiments are described in the text or in corresponding figure legends. For immunofluorescence microscopy, IM-PHFA, grown on chamber slides, were probed with anti-AEG-1 and anti-calreticulin primary antibodies and FITC-conjugated anti-chicken and rhodamine-conjugated anti-rabbit secondary antibodies, respectively. Alternatively, IM-PHFA were loaded with Mito-Tracker (Molecular probes) and then immunocytochemistry was performed using anti-AEG-1 antibody and rhodamine-conjugated anti-chicken secondary antibody. Cells were visualized using a Zeiss confocal laser scanning microscope (LSM510) and a 100× objective.
Construction of AEG-1 siRNA. The sequence (5′ AGCAGCCACCAGAGATTGA 3′) (SEQ ID NO:3) used for AEG-1 silencing corresponds to the 449-467 nucleotides of the AEG-1 ORF. The siRNA was constructed with Silencer™ siRNA kit according to manufacturer's protocol. A control scrambled siRNA was used to determine specificity of the inhibition and the sequence 5′ GGGTCGTCTA TAGGGATCGAT 3′(SEQ ID NO:10)
Effect of inhibition of AEG-1 on anchorage independent growth of malignant glioma cells. U87-MG and U251-MG cells were transiently transfected with siRNA for the AEG-1 gene and control scrambled siRNA using Lipofectamine. […]

U87-MG cells [11] = assay: Soft agar cloning efficiency; format: cell-based, human; details: transient transfection vs control scrambled siRNA
Experimental: (§7) Soft agar colony formation and Matrigel invasion assay. FM-516SV cells (2×10^5 cells/6-cm plate) plated the previous day were transfected with either pcDNA3.1, pcDNA3.1 AEG-1, T24 Ha-ras (20 μg each), or AEG-1/T24 Ha-ras (10+10 μg). Two days later, transfected cells were harvested by trypsinization and re-plated in soft agar (0.4%) overlaying 0.8% base agar. Two weeks later, colonies over ˜50 cells in soft agar were identified microscopically and counted. Soft agar colony formation assay was also performed with FM-516SV AEG-1 stable transfectants established by transfection of pcDNA3.1 AEG-1 and T24 Ha-ras and G418 selection.
(§8) Effect of inhibition of AEG-1 on anchorage independent growth of malignant glioma cells. U87-MG and U251-MG cells were transiently transfected with siRNA for the AEG-1 gene and control scrambled siRNA using Lipofectamine. 24 hours after transfection 1×10^5 cells from the transfection mixture were replated to determine agar cloning efficiency. In parallel, cell extracts were prepared for western blot analysis.

U251-MG cells [12] = assay: Soft agar cloning efficiency; format: cell-based, human; details: transient transfection vs control scrambled siRNA
Experimental: as §7, §8

With `Nc1ncnc2c1nc(Br)n2[C@@H]1O[C@@H]2COP(=O)(O)O[C@H]2[C@H]1O` [Bromo-cyclicAMP] the “AEG-1 promoter activity (luciferase)” value (AEG-1 promoter [1]) was “dose responsive stimulation”.

With `COc1cccc(-c2cc(=O)c3ccccc3o2)c1N` [PD 98059] the “AEG-1 promoter activity, responsiveness to inhibitor” value (AEG-1 promoter [2]) was “not responsive”, the “AEG-1 promoter activity (luciferase)” value (AEG-1 promoter [3]; 20 and 50 μM) was “dose dependent inhibition” and the “AEG-1 promoter activity (luciferase)” value (AEG-1 promoter [4]; 20 and 50 μM) was “dose dependent inhibition”.

For `C[S+]([O-])c1ccc(-c2nc(-c3ccncc3)c(-c3ccc(F)cc3)[nH]2)cc1` (centres unmarked) [SB 203580], the “AEG-1 promoter activity (luciferase)” value (AEG-1 promoter [3]; 5 μM) was “inhibition of promoter activity was observed” and the “AEG-1 promoter activity (luciferase)” value (AEG-1 promoter [4]; 5 μM) was “inhibition of promoter activity was observed”.

In the case of TNFα, the “decrease of EAAT2 promoter activity” value (EAAT2 promoter) is given as about 2.5 fold and the “AEG-1 expression over control” value (AEG-1 [5]) is given as 3 fold.

For “Tat gene product: HIV-Tat gene product expressed from a co-transfected plasmid expression vector”, the “stimulation of AEG-1 promoter activity” value (AEG-1 promoter [6]) was 1.5 fold.

In the case of “gp120: HIV-1 gp120 envelope protein used to treat astrocytes”, the “decrease of EAAT2 promoter activity” value (EAAT2 promoter) is listed as about 2.5 fold, the “reduction in glutamate uptake” value [7] is listed as about 60% and the “AEG-1 expression over control” value (AEG-1 [5]) is listed as 3 fold.

With “siRNA for AEG-1: siRNA with sequence 5′ AGCAGCCACCAGAGATTGA 3′ (SEQ ID NO:3), corresponds to nucleotides 449-467 of the AEG-1 ORF (listed as DNA, chemistry not given here)” the Matrigel invasion (U87-MG cells [8]) was “significantly inhibited”, the Matrigel invasion (U251-MG cells [9]) was “significantly inhibited” and the “AEG-1 protein knock down (Western blot)” value (AEG-1 [10]) was “efficient protein knock down”. The agar cloning efficiency (U87-MG cells [11]) was “significantly inhibited” and the agar cloning efficiency (U251-MG cells [12]) was “significantly inhibited”.
